# Assay: in vitro
# Conditions: human, hela cells, % viability
row,Compound,"viability at 28.5 h, 10 µM [%]"
1,Cc1ccc(N2C(=O)CSC23C(=O)Nc2ccccc23)cc1Br (stereo not shown) [CBK093472],104
2,O=C(NCc1ccccc1)c1ccc(N2C(=O)CSC23C(=O)Nc2ccccc23)cc1 (stereo not shown) [CBK093476],109
3,O=C1CSC2(C(=O)Nc3ccccc32)N1c1cccc(F)c1 (stereo not shown) [CBK093488],99.2
4,Clc1cncc(NCCc2c[nH]c3ccccc23)n1 [CBK093514],56.8
5,Cc1ccc(S(=O)(=O)NCC2CCC(C(=O)Oc3ccc4ccc(=O)oc4c3)CC2)cc1 (stereo not shown) [CBK093519],87.9
6,CC(C)Nc1nccnc1Sc1cccc(C(=O)O)c1 [CBK093581],96.6
7,CC(C)Nc1cc(Sc2cccc(C(=O)O)c2)ncn1 [CBK093583],117
8,O=C(O)c1cccc(Sc2cc(N3CCCC3)ncn2)c1 [CBK093586],113
9,O=C(O)c1cccc(Sc2cc(C(F)(F)F)ccn2)c1 [CBK093590],88.7
10,CCc1[nH]nc(C)c1Cc1c(Cl)cccc1Cl [CBK093598],106
11,CN(c1nc(-c2cccnc2)cn2ccnc12)C1CCCCC1 [CBK093609],87
12,CC(C)(C)c1ccc(S(N)(=O)=O)cc1NC(=O)Nc1cccc(F)c1 [CBK093643],100
13,NC1=NNC2=C(c3ccc(Cl)cc3Cl)NNN12 [CBK093660],86.4
14,COc1ccc(C2=C3NN=C(N)N3NN2)cc1 [CBK093662],84.8
15,NC1=C2NC(c3cccc(C(=O)O)c3)=NN2N(c2ccccc2)N1 [CBK093663],98.7
16,CC(C)Nc1nccnc1Sc1cccc(O)c1 [CBK093725],111
17,CC(C)Nc1cncc(Sc2ccccc2N)n1 [CBK093726],91.7
18,CC(C)Nc1cc(Sc2ccccc2N)ncn1 [CBK093729],91.6
19,CC(C)Nc1nc2cc(Cl)c(Cl)cc2nc1Sc1cccc(O)c1 [CBK093732],94.8
20,c1ccc(Sc2nccnc2N2CCCC2)nc1 [CBK093734],87.7
21,Cc1csc(Sc2nccnc2N2CCCC2)n1 [CBK093735],90.3
22,COCc1nnc(Sc2nccnc2N2CCCC2)s1 [CBK093736],95.4
23,Cc1csc(Sc2cc(N3CCCC3)ncn2)n1 [CBK093745],100

row,Compound,"viability at 28.5 h, 10 µM [%]"
1,COCc1nnc(Sc2cc(N3CCCC3)ncn2)s1 [CBK093746],88.4
2,Oc1cccc(Sc2cc(N3CCCC3)ncn2)c1 [CBK093749],97.4
3,Nc1nnc(Sc2nc3ccccc3nc2N2CCCC2)s1 [CBK093750],88.4
4,Cc1nnc(Sc2nc3ccccc3nc2N2CCCC2)s1 [CBK093751],89.1
5,Oc1cccc(Sc2nc3ccccc3nc2N2CCCC2)c1 [CBK093753],88.5
6,Cn1ccnc1Sc1ncccc1C(F)(F)F [CBK093759],91.2
7,COc1ccc(Sc2ncccc2C(F)(F)F)cc1OC [CBK093760],100
8,Nc1ccccc1Sc1cc(C(F)(F)F)ccn1 [CBK093761],91.4
9,COc1ccc(Sc2cccc(C(F)(F)F)n2)cc1OC [CBK093769],94
10,COc1ccc(Sc2nccc(C(F)(F)F)n2)cc1OC [CBK093772],90.4
11,Cc1nnc(Sc2nc3ccccc3nc2C(F)(F)F)s1 [CBK093774],94.8
12,Cc1csc(Sc2nc3ccccc3nc2C(F)(F)F)n1 [CBK093775],94.9
13,Nc1ccccc1Sc1nc2ccccc2nc1C(F)(F)F [CBK093776],96.1
14,FC(F)(F)c1nc2ccccc2nc1Sc1ccccn1 [CBK093781],89
15,FC(F)(F)c1ccnc(Sc2ccccn2)n1 [CBK093786],99.3
16,COCc1nnc(Sc2nccc(C(F)(F)F)n2)s1 [CBK093790],99.5
17,COc1ccc(Sc2nc3cc(Cl)c(Cl)cc3nc2NC(C)C)cc1OC [CBK093792],103
18,FC(F)(F)c1ccnc(Sc2ccncc2)c1 [CBK093793],92.3
19,Nc1nnc(Sc2nc3ccccc3nc2C(F)(F)F)s1 [CBK093795],94.6
20,Cn1ccnc1Sc1cc(C(F)(F)F)ccn1 [CBK093798],80.5
21,Oc1cccc(Sc2nccc(C(F)(F)F)n2)c1 [CBK093801],96.6
22,FC(F)(F)c1ccnc(Sc2nc[nH]n2)n1 [CBK093806],93.1
23,COc1ccc(-c2ccc(OC3CCNCC3)cc2)c(OC)c1 [CBK093816T],91.2

row,Compound,"viability at 28.5 h, 10 µM [%]"
1,Cc1ccc2oc(-c3ccc(O)cc3)nc2c1 [CBK093878],96.2
2,S=c1[nH]cnc2scc(-c3ccc(Cl)cc3)c12 [CBK094069],76.5
3,Cc1c(C#N)c2ccc(O)c(CN(C)C)c2n1-c1ccccc1 [CBK094247C],98.2
4,Cc1ccccc1/N=C1/NC(=O)/C(=C/c2ccc([N+](=O)[O-])o2)S1 [CBK094584],96.6
5,CCOc1ccc(-c2csc(NC(=O)c3cccnc3)n2)cc1 [CBK094747],89.2
6,O=C1CC(c2ccc(Br)cc2)Nc2ccc3ccccc3c21 (stereo not shown) [CBK094798],93.4
7,CC(C)(C)c1ccc(-n2cc(-c3ccc(F)cc3F)nn2)cc1 [CBK094818],85.4
8,Cc1ccc(-c2csc(NC(=O)c3ccc(F)cc3)n2)cc1 [CBK095107],85.2
9,O=C1S/C(=C\c2ccc(F)c(Br)c2)C(=O)N1c1cccc(Cl)c1 [CBK095450],87.7
10,CC(C)(C)c1ccc(S(=O)(=O)N2CCSC2)cc1 [CBK095672],101
11,O=C(Nc1nnc(C(F)(F)F)s1)c1cc(Cl)ccc1Cl [CBK095734],86.3
12,COc1ccc(CCNC(=O)CSc2nc(N)c3c4c(sc3n2)CCCC4)cc1 [CBK095784],94.2
13,CC(=O)Nc1ccc(N2C(=O)CSC23C(=O)Nc2ccccc23)cc1 (stereo not shown) [CBK095916],91.7
14,CCN(CC)c1ccc(NC(=O)COc2ccccc2)cc1 [CBK096048],91.9
15,CCOC(=O)C1CCN(S(=O)(=O)c2ccc(Cl)s2)CC1 [CBK096109],94.9
16,C=CCn1c(S)nnc1-c1ccc(Br)cc1 [CBK096756],77.3
17,O=C(O)c1ccccc1SC(C[N+](=O)[O-])c1ccccc1Cl (stereo not shown) [CBK097071],95.6
18,CCOC(=O)c1sc2nc(C)cc(C)c2c1N [CBK097355],82.9
19,COc1ccc(S(=O)(=O)N2CCSC2)cc1C [CBK097882],106
20,Nc1ncnc2sc3c(c12)CCC3 [CBK097952],89.7
21,CCOc1ccc(/C=C2/NC(=O)NC2=O)cc1Br [CBK098031],91.6
22,NC(=O)c1ccc(-c2ccc(/C=C3/C(=O)NN(c4ccc(F)cc4)C3=O)o2)cc1 [CBK098345],89.9
23,Cc1ccc(N2CCN(S(=O)(=O)c3ccc(I)cc3)CC2)c(C)c1 [CBK098562],91.7

row,Compound,"viability at 28.5 h, 10 µM [%]"
1,NC(=O)c1cnn(-c2cc(Oc3ccccc3)ncn2)c1N [CBK098664],105
2,CSc1ccccc1-n1nnnc1SCc1ccccc1 [CBK099033],83
3,CCOc1ccccc1C(=O)Nc1ccc(O)cc1 [CBK099037],91.8
4,COC(=O)c1ccc(NC(=S)NC(=O)c2cncc(Br)c2)cc1 [CBK099257],87.9
5,CCCCOc1ccc(S(=O)(=O)N2CCN(c3cccc(C)c3C)CC2)cc1 [CBK099293],114
6,Cc1ccc(Oc2cc(-n3nc(C)c(C(N)=O)c3N)ncn2)cc1 [CBK099753],95.7
7,COc1ccc(OC)c(NS(=O)(=O)c2ccccc2)c1 [CBK099989],73
8,COc1cc(/C=C2/SC(=O)NC2=O)cc(I)c1O [CBK100075],92.1
9,O=C(O)C1CCN(S(=O)(=O)c2ccc(F)cc2)CC1 [CBK100196],102
10,Cc1ccc(C)c(N2CCN(S(=O)(=O)c3ccc(-c4ccccc4)cc3)CC2)c1 [CBK100692],104
11,Cc1ccc(S(=O)(=O)N2CCCC(C(=O)O)C2)cc1 (stereo not shown) [CBK100948],88.6
12,Cc1cc(C)c(-n2nnnc2SCc2ccc(F)cc2)c(C)c1 [CBK100994],103
13,COc1cccc(C(=O)Nc2nc(-c3ccc(C(C)C)cc3)cs2)c1 [CBK101110],87
14,COc1ccc(-n2c(C)c(C#N)c3cc(Br)c(O)c(Br)c32)cc1 [CBK101113],91.6
15,CCOC(=O)c1cnn2c(C)cc(C)nc12 [CBK101119],103
16,N#CC1CCCc2c1[nH]c1ccc(Cl)cc21 (stereo not shown) [CBK101438],63.9
17,O=C(O)C1CCCCN1S(=O)(=O)c1ccc(Br)cc1 (stereo not shown) [CBK101789],88.6
18,Fc1ccc(-n2nnnc2SCc2ccc(Cl)cc2)cc1Cl [CBK102075],97.5
19,N#Cc1c(N)ncnc1-c1ccccc1 [CBK102172],84.2
20,Cc1ccc(S(=O)(=O)Nc2nc(C)cs2)cc1 [CBK102326],100
21,COc1c(Br)cc(/C=C2\SC(=O)NC2=O)cc1Br [CBK102455],101
22,CCCc1[nH]nc(O)c1C(=O)c1c(F)cccc1Cl [CBK103524],103

# Same assay, conditions: human, hela cells, % viability, bulk resorufin, single well
row,Compound,"viability at 28.5 h, 10 µM [%]"
1,COC(=O)c1nn(Cc2ccc(OC)cc2)c2ccccc12 [CBK093526],31.4
2,COc1ccc(Cn2nc(C(=O)O)c3ccccc32)cc1OC [CBK093529],93
3,O=C(Nc1cccc(-c2ccc3c(c2)COC2(CCNCC2)O3)c1)c1cnccn1 [CBK093670],90.5
4,CCc1ccc(C(=O)Nc2cccc(-c3ccc4c(c3)COC3(CCNCC3)O4)c2)cc1 [CBK093680],67.5
5,CC1(C)CC(=O)C=C(C(=O)Nc2cccc(-c3ccc4c(c3)COC3(CCNCC3)O4)c2)O1 [CBK093704],97.8
6,c1cc(-c2ccc3c(c2)COC2(CCNCC2)O3)c2cc[nH]c2c1 [CBK093812],108

# From PMC12040169 (PLOS Biology, 2025)
